Experimental data taken from the supplement of paper PMC9262897, “Low-cost anti-mycobacterial drug discovery using engineered E. coli” (Nature Communications, 2022).

Assays:
Assay in all cases: growth (OD600 after 24 h); higher = more growth
Efflux+ = test system: Efflux+
Experimental: (§1)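 E. coli BW25113 ΔaraC (Efflux+) or efflux-pump deletion strains (ΔtolC ΔentC, ΔemrE, ΔmdtI, ΔyeeO, ΔmdtK, ΔmdtM) diluted 1:100 in M9-based medium with a drug dilution series. Growth is read as OD600 after 24 h; 3 biological replicates.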

∆emrE = test system: ∆emrE
Experimental: as §1

∆mdtI = test system: ∆mdtI
Experimental: as §1

∆mdtK = test system: ∆mdtK
Experimental: as §1

∆mdtM = test system: ∆mdtM
Experimental: as §1

∆tolC ∆entC = test system: ∆tolC ∆entC
Experimental: as §1

∆yeeO = test system: ∆yeeO
Experimental: as §1

CC/C(=C(/CC)c1ccc(O)cc1)c1ccc(O)cc1 [Diethylstilbestrol]
growth
Settings | Efflux+ | ∆emrE | ∆mdtI | ∆mdtK | ∆mdtM | ∆tolC ∆entC | ∆yeeO
drug 0.5 µM | 0.872 | 0.993 | 0.863 | 0.717 | 0.7859 | 0.995 | 0.983
drug 1.25 µM | 1.04 | 0.978 | 0.979 | 0.754 | 0.8345 | 1.04 | 0.991
drug 2.5 µM | 1.03 | 0.977 | 0.976 | 0.881 | 0.903 | 1.03 | 1.01
drug 5 µM | 1.07 | 1.01 | 0.9841 | 0.786 | 0.956 | 0.761 | 1
drug 10 µM | 1.056 | 1.06 | 1.02 | 0.84 | 0.9842 | 0.0999 | 1.04
drug 20 µM | 1.06 | 1.08 | 0.948 | 0.713 | 1.05 | 0.0484 | 1.07
